Reference: patent publication US9765105B2, “Macrolide compound” (Pulike Biological Engineering, Inc., priority 2013, dated 2017)

What was measured:
Assay in all cases: in vitro susceptibility, MIC by mini broth dilution
Assay type in all cases: cell-based
[1] = tested on: Staphylococcus aureus CVCC26003; conditions: strain CVCC26003
Protocol: (§1) in vitro tests of susceptibility of the compounds according to the present disclosure against bacterial strains commonly used in laboratories. In accordance with the Performance Standards for Antimicrobial Disk Susceptibility Tests: Approved Standard published by the US National Committee for Clinical Laboratory Standards, the antibacterial activities of compounds prepared according to examples 5 to 187 were tested. The MICs (minimum inhibitory concentration) of the medicaments prepared according to the examples on the following bacterial strains were measured through mini broth dilution technique. Staphylococcus aureus CVCC26003, Streptococcus equines CVCC556. Actinobacillus pleuropneumoniae CVCC262, Haemophilus parasuis, and Pasteurella multocida CVCC399, which were purchased from the Control Institute of Veterinary Bioproducts and Pharmaceuticals, China. 4.1.1 Culture Medium for Staphylococcus aureus CVCC26003 Liquid culture medium: CAMHB. […] Solid culture medium: NINA prepared according to the specification of the final product. The strains were taken out of a refrigerator at −20° C. to be revived, and were spreaded by streaking on the solid culture medium with an inoculating loop. The inoculated culture medium was cultured at 35° C. in a constant temperature incubator for 20 h. […] were selected from a well-grown culture plate and streaked on the solid culture medium. The inoculated culture medium was cultured at 35° C. in the constant temperature incubator for 20 h. […] A 96-well plate was used, and 100 μl of DMSO was added into each of wells 2 to 11, and 200 μl of ready-prepared medicament solution was added into the 1st well, 100 μl of the medicament solution was extracted from the 1st well and added into the 2nd well. Double dilution was performed until the 11th well, thereby forming 11 gradients. In this case, compound of parent plate was prepared. 3 μl of double diluted medicament solution was extracted with a 12-channel pipettor and added into wells 1-11 of a new disposable 96-well culture plate. The 12th well thereof is a control well. For each medicament, there are two adjacent rows which are parallel. The transferred compound plate was reserved for later use. […] The dilution ratio was recorded, and the bacterial liquid for the tests was diluted according to the recorded dilution ratio. Subsequently, the bacterial suspension and the liquid culture medium were diluted in the proportion of 1:200. The diluted solution was reserved for later use.

[2] = tested on: Actinobacillus pleuropneumoniae CVCC262; conditions: strain CVCC262
Protocol: as §1, with “China. 4.1.2” for “China. 4.1.1”, “Culture Media” for “Culture Medium”, “for the Rest Four Bacterial Strains.” for “for Staphylococcus aureus CVCC26003”, “medium:” for “medium: CAMHB.”, “medium: […]” for “medium: NINA prepared according to the specification of the final product.”

Haemophilus parasuis = tested on: Haemophilus parasuis
Protocol: as §1, with “China. 4.1.2” for “China. 4.1.1”, “Culture Media” for “Culture Medium”, “for the Rest Four Bacterial Strains.” for “for Staphylococcus aureus CVCC26003”, “medium:” for “medium: CAMHB.”, “medium: […]” for “medium: NINA prepared according to the specification of the final product.”

[3] = tested on: Pasteurella multocida CVCC399; conditions: strain CVCC399
Protocol: as §1, with “China. 4.1.2” for “China. 4.1.1”, “Culture Media” for “Culture Medium”, “for the Rest Four Bacterial Strains.” for “for Staphylococcus aureus CVCC26003”, “medium:” for “medium: CAMHB.”, “medium: […]” for “medium: NINA prepared according to the specification of the final product.”

[4] = tested on: Streptococcus equines CVCC556; conditions: strain CVCC556
Protocol: as §1, with “China. 4.1.2” for “China. 4.1.1”, “Culture Media” for “Culture Medium”, “for the Rest Four Bacterial Strains.” for “for Staphylococcus aureus CVCC26003”, “medium:” for “medium: CAMHB.”, “medium: […]” for “medium: NINA prepared according to the specification of the final product.”

Row | SMILES | MIC values, Staphylococcus aureus CVCC26003 [1] | MIC values, Actinobacillus pleuropneumoniae CVCC262 [2] | MIC values, Haemophilus parasuis (Haemophilus parasuis) | MIC values, Pasteurella multocida CVCC399 [3] | MIC values, Streptococcus equines CVCC556 [4]
1 | CC[C@H]1OC(=O)[C@H](C)[C@@H](O[C@H]2C[C@@](C)(OC)[C@](O)(CNCc3ccc(Cl)cc3)[C@H](C)O2)[C@H](C)[C@@H](O[C@@H]2O[C@H](C)C[C@H](N(C)C)[C@H]2O)[C@](C)(O)C[C@@H](C)NC[C@H](C)[C@@H](O)[C@]1(C)O [syzx-20, (2R,3S,4R,5S,8R,10R,11R,12S,13S,14R)-13-[(2,6-dideoxy-3-C-methyl-3-O-methyl-4-C-[(4-chlorolbenzylamino)methyl]-α-L-ribopyranosyl)oxy]-2-ethyl-3,4,10-trihydroxy-3,5,8,10,12,14-hexamethyl-11-[[3,4,6-trideoxy-3-(dimethylamino)-β-D-xylo-hexopyranosy]oxy]-1-oxa-7-azacyclopentadecan-15-one] | ≦0.25 ug/mi | 2 ug/mi | ≦0.25 ug/mi | 0.25 ug/mi | ≦0.25 ug/mi
2 | CC[C@H]1OC(=O)[C@H](C)[C@@H](O[C@H]2C[C@@](C)(OC)[C@](O)(CNCc3cccnc3)[C@H](C)O2)[C@H](C)[C@@H](O[C@@H]2O[C@H](C)C[C@H](N(C)C)[C@H]2O)[C@](C)(O)C[C@@H](C)NC[C@H](C)[C@@H](O)[C@]1(C)O [syzx-21, (2R,3S,4R,5S,8R,10R,11R,12S,13S,14R)-13-[(2,6-dideoxy-3-C-methyl-3-O-methyl-4-C-[(3-pyridinylmethylamino)methyl]-α-L-ribopyranosyl)oxy]-2-ethyl-3,4,10-trihydroxy-3,5,8,10,12,14-hexamethyl-11-[[3,4,6-trideoxy-3-(dimethylamino)-β-D-xylo-hexopyranosy]oxy]-1-oxa-7-azacyclopentadecan-15-one] | 0.5 ug/mi | 32 ug/mi | ≦0.25 ug/mi | ≦0.25 ug/mi | ≦0.25 ug/mi
3 | CCOCCCNCC1(O)C(C)OC(OC2C(C)C(=O)OC(CC)C(C)(O)C(O)C(C)CNC(C)CC(C)(O)C(OC3OC(C)CC(N(C)C)C3O)C2C)CC1(C)OC [syzx-22, (2R,3S,4R,5S,8R,10R,11R,12S,13S,14R)-13-[(2,6-dideoxy-3-C-methyl-3-O-methyl-4-C-[(3-ethoxypropyl)amino)methyl]-α-L-ribopyranosyl)oxy]-2-ethyl-3,4,10-trihydroxy-3,5,8,10,12,14-hexamethyl-11-[[3,4,6-trideoxy-3-(dimethylamino)-β-D-xylo-hexopyranosy]oxy]-1-oxa-7-azacyclopentadecan-15-one] | 1 ug/mi | 8 ug/mi | ≦0.25 ug/mi | 0.5 ug/mi | 0.5 ug/mi
4 | CC[C@H]1OC(=O)[C@H](C)[C@@H](O[C@H]2C[C@@](C)(OC)[C@](O)(CNCc3ccccc3OC)[C@H](C)O2)[C@H](C)[C@@H](O[C@@H]2O[C@H](C)C[C@H](N(C)C)[C@H]2O)[C@](C)(O)C[C@@H](C)NC[C@H](C)[C@@H](O)[C@]1(C)O [syzx-27] | 0.5 ug/mi | 4 ug/mi | ≦0.25 ug/mi | 0.5 ug/mi | ≦0.25 ug/mi
